Assay results published in article PMC9851200, “Multiparameter phenotypic screening for endogenous TFEB and TFE3 translocation identifies novel chemical series modulating lysosome function” (Autophagy, 2022).

How the values were obtained:
Assay type in all cases: binding
[1] = target: kinases (KINOMEscan panel) (Homo sapiens, UniProt Q14680); conditions: kinase MELK; NEW KINOMEscan
[2] = target: kinases (KINOMEscan panel) (Homo sapiens, UniProt P00519, T315I); conditions: NEW KINOMEscan; for KINOMEscan ABL1(T315I)-nonphosphorylated: kinase ABL1(T315I)-nonphosphorylated; for KINOMEscan ABL1(T315I)-phosphorylated: kinase ABL1(T315I)-phosphorylated
[3] = target: kinases (KINOMEscan panel) (Homo sapiens, UniProt P78368); conditions: kinase CSNK1G2; NEW KINOMEscan
Chain of kinases (KINOMEscan panel) (Homo sapiens, UniProt P78368) (P78368 whole entry): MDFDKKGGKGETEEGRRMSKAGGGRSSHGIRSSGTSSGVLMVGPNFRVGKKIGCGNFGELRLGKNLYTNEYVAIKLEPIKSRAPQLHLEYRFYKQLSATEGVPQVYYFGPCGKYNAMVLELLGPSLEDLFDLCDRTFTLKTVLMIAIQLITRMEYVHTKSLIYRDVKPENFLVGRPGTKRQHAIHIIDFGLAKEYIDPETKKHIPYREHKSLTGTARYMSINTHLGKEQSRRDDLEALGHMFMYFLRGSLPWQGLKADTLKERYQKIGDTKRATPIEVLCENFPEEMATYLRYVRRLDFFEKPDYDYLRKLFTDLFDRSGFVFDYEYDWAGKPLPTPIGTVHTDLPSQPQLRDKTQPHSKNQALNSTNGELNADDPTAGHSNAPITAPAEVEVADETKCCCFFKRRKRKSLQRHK

[4] = target: T1, kinases (KINOMEscan panel) (Homo sapiens, UniProt P78356); conditions: PIP4K2B; NEW KINOMEscan
T1 sequence (P78356 1-416): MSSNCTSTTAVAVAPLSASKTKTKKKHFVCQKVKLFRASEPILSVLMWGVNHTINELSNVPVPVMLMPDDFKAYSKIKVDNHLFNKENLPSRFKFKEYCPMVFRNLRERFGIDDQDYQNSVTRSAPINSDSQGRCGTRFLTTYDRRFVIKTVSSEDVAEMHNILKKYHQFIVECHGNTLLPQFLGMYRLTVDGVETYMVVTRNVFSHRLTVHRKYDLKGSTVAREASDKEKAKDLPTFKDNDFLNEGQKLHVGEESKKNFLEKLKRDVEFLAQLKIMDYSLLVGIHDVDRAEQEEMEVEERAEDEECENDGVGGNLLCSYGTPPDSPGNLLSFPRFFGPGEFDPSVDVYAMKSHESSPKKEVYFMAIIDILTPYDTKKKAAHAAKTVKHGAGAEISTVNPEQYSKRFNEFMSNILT

[5] = target: kinases (KINOMEscan panel) (Homo sapiens, UniProt Q96GD4); conditions: kinase AURKB; NEW KINOMEscan
Chain of kinases (KINOMEscan panel) (Homo sapiens, UniProt Q96GD4) (Q96GD4 whole entry): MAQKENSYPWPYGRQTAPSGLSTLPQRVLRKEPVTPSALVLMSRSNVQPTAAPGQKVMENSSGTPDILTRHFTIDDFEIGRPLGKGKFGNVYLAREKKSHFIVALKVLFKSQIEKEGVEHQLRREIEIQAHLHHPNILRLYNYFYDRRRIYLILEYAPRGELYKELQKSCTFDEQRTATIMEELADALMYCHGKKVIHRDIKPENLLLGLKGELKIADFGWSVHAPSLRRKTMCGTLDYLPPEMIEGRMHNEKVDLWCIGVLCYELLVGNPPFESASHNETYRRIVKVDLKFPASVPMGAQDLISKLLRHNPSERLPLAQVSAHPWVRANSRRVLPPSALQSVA

[6] = target: T2, kinases (KINOMEscan panel) (Homo sapiens, UniProt Q9HBY8); conditions: NEW KINOMEscan
T2 sequence (Q9HBY8 1-367): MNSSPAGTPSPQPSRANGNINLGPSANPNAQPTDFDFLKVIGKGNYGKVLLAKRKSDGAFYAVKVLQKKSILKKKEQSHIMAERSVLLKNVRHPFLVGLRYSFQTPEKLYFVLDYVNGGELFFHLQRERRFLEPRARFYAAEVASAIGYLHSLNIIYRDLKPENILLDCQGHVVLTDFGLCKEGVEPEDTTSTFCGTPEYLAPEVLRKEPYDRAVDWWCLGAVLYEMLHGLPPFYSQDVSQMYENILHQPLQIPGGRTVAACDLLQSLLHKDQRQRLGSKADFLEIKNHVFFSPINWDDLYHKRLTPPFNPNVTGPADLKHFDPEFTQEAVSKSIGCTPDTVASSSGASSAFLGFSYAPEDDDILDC

[7] = target: kinases (KINOMEscan panel) (Homo sapiens, UniProt P11309); conditions: NEW KINOMEscan
Chain of kinases (KINOMEscan panel) (Homo sapiens, UniProt P11309) (P11309 whole entry): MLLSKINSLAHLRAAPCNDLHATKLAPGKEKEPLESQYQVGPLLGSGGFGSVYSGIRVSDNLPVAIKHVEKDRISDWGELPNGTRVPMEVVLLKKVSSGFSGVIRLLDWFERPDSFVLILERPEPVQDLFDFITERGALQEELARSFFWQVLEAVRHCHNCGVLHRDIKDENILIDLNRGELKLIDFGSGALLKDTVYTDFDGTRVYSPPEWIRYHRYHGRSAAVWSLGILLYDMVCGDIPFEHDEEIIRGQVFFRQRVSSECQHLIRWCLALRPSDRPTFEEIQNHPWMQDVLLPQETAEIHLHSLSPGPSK

[8] = target: kinases (KINOMEscan panel) (Homo sapiens, UniProt P00533, L858R/T790M); conditions: NEW KINOMEscan
Chain of kinases (KINOMEscan panel) (Homo sapiens, UniProt P00533, L858R/T790M) (P00533 25-1210 T790M/L858R): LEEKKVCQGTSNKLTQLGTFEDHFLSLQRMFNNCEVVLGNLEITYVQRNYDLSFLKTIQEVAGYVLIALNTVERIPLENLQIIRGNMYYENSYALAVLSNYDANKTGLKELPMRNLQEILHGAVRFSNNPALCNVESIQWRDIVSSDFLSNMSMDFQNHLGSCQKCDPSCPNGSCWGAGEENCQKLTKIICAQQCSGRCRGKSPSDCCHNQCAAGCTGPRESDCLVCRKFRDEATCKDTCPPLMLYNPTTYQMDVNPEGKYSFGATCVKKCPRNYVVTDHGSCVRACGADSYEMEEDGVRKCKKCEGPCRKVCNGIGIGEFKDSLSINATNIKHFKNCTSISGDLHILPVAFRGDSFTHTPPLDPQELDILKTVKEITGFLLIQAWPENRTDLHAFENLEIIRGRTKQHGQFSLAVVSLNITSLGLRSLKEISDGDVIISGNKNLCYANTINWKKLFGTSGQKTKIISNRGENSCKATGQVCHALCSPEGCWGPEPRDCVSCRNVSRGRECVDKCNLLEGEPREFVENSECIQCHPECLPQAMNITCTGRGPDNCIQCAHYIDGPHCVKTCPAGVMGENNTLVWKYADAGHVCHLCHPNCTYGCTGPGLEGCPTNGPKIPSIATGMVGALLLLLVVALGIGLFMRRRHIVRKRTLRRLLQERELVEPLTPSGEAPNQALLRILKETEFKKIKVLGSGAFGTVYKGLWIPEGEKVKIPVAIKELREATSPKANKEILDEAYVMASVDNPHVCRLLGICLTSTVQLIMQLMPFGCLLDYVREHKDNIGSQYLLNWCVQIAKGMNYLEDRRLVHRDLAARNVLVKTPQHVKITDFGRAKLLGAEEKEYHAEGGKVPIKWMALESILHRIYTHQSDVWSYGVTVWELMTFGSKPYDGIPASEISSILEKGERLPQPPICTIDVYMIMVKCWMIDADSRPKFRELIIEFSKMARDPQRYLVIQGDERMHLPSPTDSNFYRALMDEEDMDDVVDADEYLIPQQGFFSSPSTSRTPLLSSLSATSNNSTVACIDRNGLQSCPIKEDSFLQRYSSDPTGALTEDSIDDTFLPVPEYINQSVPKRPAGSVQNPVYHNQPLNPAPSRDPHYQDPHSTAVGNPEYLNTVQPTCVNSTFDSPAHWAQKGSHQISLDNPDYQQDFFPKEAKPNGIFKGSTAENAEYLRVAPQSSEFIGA

[9] = target: T3, kinases (KINOMEscan panel) (Homo sapiens, UniProt Q56UN5); conditions: NEW KINOMEscan
T3 sequence (Q56UN5 1-1328): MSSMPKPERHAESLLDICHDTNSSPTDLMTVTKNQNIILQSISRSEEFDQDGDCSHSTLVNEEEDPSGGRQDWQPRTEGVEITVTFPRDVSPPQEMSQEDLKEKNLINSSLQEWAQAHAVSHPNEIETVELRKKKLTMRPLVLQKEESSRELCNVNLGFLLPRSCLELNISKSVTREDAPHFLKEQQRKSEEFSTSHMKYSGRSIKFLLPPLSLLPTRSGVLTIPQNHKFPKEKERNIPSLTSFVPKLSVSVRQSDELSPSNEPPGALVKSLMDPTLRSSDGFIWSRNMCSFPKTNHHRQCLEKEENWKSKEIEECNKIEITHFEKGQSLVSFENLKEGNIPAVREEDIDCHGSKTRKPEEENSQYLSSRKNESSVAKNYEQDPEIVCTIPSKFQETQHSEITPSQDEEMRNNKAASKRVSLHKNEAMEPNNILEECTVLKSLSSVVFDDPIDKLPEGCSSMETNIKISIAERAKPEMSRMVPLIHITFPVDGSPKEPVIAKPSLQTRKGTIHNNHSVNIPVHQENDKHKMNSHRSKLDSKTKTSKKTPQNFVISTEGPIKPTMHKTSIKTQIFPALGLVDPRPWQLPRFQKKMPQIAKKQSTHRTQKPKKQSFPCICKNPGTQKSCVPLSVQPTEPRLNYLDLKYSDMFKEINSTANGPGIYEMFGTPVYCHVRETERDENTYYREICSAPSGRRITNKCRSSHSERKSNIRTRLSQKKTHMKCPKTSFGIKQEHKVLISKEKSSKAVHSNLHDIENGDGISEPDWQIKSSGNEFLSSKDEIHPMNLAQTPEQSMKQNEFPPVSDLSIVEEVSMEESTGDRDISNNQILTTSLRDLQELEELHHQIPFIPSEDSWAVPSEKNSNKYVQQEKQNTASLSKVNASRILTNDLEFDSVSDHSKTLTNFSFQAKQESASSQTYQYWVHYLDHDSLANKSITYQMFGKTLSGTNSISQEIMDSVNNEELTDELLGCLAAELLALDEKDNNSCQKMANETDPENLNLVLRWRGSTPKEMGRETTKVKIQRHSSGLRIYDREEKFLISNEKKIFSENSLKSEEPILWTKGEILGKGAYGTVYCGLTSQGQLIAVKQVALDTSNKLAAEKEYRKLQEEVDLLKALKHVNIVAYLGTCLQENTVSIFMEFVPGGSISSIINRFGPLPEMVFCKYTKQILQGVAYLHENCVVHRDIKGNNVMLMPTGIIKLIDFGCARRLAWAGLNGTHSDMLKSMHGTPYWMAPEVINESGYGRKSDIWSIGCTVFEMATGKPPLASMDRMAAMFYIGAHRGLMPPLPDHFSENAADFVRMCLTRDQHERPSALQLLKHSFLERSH

[10] = target: kinases (KINOMEscan panel) (Homo sapiens, UniProt P10721, D816V); conditions: kinase KIT(D816V); NEW KINOMEscan
Chain of kinases (KINOMEscan panel) (Homo sapiens, UniProt P10721, D816V) (P10721 26-976 D816V): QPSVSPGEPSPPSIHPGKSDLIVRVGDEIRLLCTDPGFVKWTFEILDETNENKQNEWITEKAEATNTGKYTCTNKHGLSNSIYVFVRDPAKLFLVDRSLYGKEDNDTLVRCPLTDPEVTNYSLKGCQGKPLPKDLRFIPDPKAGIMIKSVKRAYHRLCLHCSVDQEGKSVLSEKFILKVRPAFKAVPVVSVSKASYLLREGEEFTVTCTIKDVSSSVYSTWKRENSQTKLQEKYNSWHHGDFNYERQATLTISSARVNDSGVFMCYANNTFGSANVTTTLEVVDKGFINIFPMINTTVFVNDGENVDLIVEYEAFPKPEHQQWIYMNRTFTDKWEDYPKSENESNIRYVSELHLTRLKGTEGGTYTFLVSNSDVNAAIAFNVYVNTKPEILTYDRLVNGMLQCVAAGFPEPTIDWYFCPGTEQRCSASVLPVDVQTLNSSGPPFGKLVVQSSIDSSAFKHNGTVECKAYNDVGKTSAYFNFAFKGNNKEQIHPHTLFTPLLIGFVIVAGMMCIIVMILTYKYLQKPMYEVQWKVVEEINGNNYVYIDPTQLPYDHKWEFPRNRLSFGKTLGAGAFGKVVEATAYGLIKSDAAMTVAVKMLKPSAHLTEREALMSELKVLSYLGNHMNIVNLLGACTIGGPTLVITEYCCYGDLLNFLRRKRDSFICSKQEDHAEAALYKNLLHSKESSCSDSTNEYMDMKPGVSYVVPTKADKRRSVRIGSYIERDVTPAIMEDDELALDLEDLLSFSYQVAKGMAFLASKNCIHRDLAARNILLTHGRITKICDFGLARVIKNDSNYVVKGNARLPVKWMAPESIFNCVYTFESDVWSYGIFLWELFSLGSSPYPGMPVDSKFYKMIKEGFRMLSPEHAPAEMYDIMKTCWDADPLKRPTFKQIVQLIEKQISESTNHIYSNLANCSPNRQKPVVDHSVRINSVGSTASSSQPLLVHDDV

Chain of kinases (KINOMEscan panel) (Homo sapiens, UniProt Q14680) (Q14680 whole entry): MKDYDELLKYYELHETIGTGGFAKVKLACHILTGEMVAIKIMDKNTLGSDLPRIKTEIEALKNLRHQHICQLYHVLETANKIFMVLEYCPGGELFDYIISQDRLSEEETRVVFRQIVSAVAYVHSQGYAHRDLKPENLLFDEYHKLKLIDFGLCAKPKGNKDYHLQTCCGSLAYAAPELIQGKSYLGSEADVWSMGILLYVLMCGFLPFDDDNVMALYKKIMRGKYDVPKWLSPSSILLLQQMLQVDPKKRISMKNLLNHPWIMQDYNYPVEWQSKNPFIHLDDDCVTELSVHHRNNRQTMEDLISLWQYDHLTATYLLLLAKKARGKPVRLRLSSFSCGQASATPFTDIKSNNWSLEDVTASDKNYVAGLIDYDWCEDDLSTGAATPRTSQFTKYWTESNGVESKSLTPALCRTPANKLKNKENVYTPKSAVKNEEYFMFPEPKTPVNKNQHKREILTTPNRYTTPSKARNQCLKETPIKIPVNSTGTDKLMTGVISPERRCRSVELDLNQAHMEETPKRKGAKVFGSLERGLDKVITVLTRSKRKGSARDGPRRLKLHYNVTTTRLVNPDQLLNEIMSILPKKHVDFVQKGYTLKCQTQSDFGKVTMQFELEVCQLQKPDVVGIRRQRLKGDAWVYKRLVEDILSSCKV

Compound | KINOMEscan MELK [1] | KINOMEscan ABL1(T315I)-nonphosphorylated [2] | KINOMEscan ABL1(T315I)-phosphorylated [2] | KINOMEscan CSNK1G2 [3] | KINOMEscan PIP4K2B [4] | KINOMEscan AURKB [5] | KINOMEscan SGK2 [6] | KINOMEscan PIM1 [7] | KINOMEscan EGFR(L858R,T790M) [8] | KINOMEscan MAP3K19 [9] | KINOMEscan KIT(D816V) [10]
Cc1cccc(-c2nc(Nc3ccc4nn(C)cc4c3)c3ccccc3n2)n1 [NK167] | 0 | 0 | 4 | 12 | 0 | 0 | 0 | 2 | 0 | 0 | 0
Cc1cccc(-c2nc(N(C)c3ccc4ncsc4c3)c3ccccc3n2)n1 [NK-161] | 2 | 0 | 3 | 25 | 0 | 0 | 15 | 29 | 10 | 0 | 7
